Source: PubChem BioAssay AID1259332 (Broad Institute, 2017)
Active and inactive are the calls of the source. The rule behind the calls is not given here.

The compounds below were run on B cell line, CD40 signaling inhibition reporter (assay: inhibitors of CD40 signaling, dose response, B cell lineage (AID 1259332);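 note: cells stimulated with CD40 ligand tCD40L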).

Structure (SMILES) | AC50
CC(=O)OCC12CC(OC(=O)CC(C)C)C(C)=CC1OC1C(O)C(OC(C)=O)C2(C)C12CO2 (stereo not given) | 2.74 µM
O=C(C1CC1)N1C[C@@H]2N[C@H](C1)C2c1ccc(-c2cccc(F)c2)cc1 (stereo not given in full) | 6.91 µM
COc1cc(C(C)C)c2c(c1)S(=O)(=O)N(COc1cc(=O)n3cccc(OCCN4CCCCC4)c3n1)C2=O | 2.64 µM
CCC(=O)NC(c1ccccc1OC)c1ccc2cccnc2c1O (stereo not given) | 8.63 µM
COc1c(O)cc2oc3cc(O)c(CC=C(C)C)c(O)c3c(=O)c2c1CC=C(C)C | 3.6 µM
Cc1ccc(S(=O)(=O)C=CS(=O)(=O)c2ccc(C)cc2)cc1 | 0.996 µM
CC(=O)OC(C)(C)/C=C/C(=O)C(C)(O)C1C(O)CC2(C)C3CC=C4C(CC(O)C(=O)C4(C)C)C3(C)C(=O)CC12C (stereo not given) | 0.124 µM
COc1ccc(-c2cc(-c3ccccc3)c(C#N)c(S(C)=O)n2)cc1 (stereo not given) | 2.55 µM
N#C[C@H]1[C@H](c2ccc(C#Cc3ccc(F)cc3)cc2)[C@@H](CO)N1C(=O)C1CCC1 | 7.7 µM
c1cc(-c2cnn3cc(-c4ccc(OCCN5CCCCC5)cc4)cnc23)ccn1 | 2.7 µM
Oc1c(Cl)cc(Cl)cc1Sc1cc(Cl)cc(Cl)c1O | 7.67 µM
CN(C)C(=S)SSC(=S)N(C)C | 0.152 µM
Cc1noc(C)c1S(=O)(=O)N(C)C[C@H]1OCc2ccccc2-c2c(n(C)c3ccccc23)C(=O)N([C@@H](C)CO)C[C@H]1C | 11.2 µM
CNC(=S)NN=C(C)CCCC(C)=NNC(=S)NC | 1.26 µM
CCOc1ncccc1C(=O)OC(C)C(=O)Nc1ccc(Cl)cn1 (stereo not given) | 10.1 µM
C[C@H](CO)N1C[C@H](C)[C@@H](CN(C)Cc2ccc(Cl)c(Cl)c2)OCCCC[C@H](C)Oc2ccc(NS(=O)(=O)c3cccs3)cc2C1=O | 8.38 µM
O=C(NC(=S)/C(=C1\CCCCCN1)[N+](=O)[O-])c1ccccc1 | 3.07 µM
COC1=CC(=O)c2c(ccc3ncnc(N)c23)C1=O | 1.66 µM
c1ccc(-c2ccc(-c3ccccn3)nn2)nc1 | 7.89 µM
COc1cccc(C#Cc2ccc([C@H]3[C@@H](C#N)N(C(=O)c4ccccn4)[C@@H]3CO)cc2)c1 | 5.81 µM
CCOc1ccc(OCc2cccc(C(=O)N3CCOCC3)c2)cc1 | 2.92 µM
C[C@H](CO)N1C[C@H](C)[C@H](CN(C)C(=O)Nc2cccc(Cl)c2Cl)OCc2ccccc2-c2c(n(C)c3ccccc23)C1=O | 5.24 µM
CC(C)c1ccc(NC(=O)Nc2nc(C(N)COCc3ccccc3)cs2)cc1 (stereo not given) | 2.62 µM

Structure (SMILES) | AC50
C[C@H](CO)N1C[C@H](C)[C@H](CN(C)C(=O)C2CCOCC2)Oc2ncc(C#CCc3ccccc3)cc2C1=O | 9.51 µM
N#C[C@H]1[C@H](c2ccc(C#Cc3ccccc3F)cc2)[C@@H](CO)N1C(=O)c1cccnc1 | 2.93 µM
O=C1NC2C(O)C(O)C(O)C(O)C2c2cc3c(c(O)c21)OCO3 (stereo not given) | 0.155 µM
Cc1ccnc(NC(=O)c2ccc(OCC3CCCO3)cc2)c1 (stereo not given) | 5.23 µM
CCCNC(=O)N1[C@@H](C#N)[C@H](c2ccc(-c3cccc(OC)c3)cc2)[C@@H]1CO | 11 µM
C[C@@H]1CN([C@@H](C)CO)C(=O)c2c(c3ccccc3n2C)-c2ccccc2CO[C@H]1CN(C)C(=O)Nc1ccccc1C(F)(F)F | 9.28 µM
CC(=O)NCCCC(=O)NC(CCC(=O)OCc1ccccc1)C(=O)OCc1ccccc1 (stereo not given) | > 20 µM (inactive)
C[C@@H]1O[C@@H](O[C@H]2C[C@@H](O)[C@]3(CO)[C@H]4[C@H](O)C[C@]5(C)[C@@H](C6COC(=O)C6)CC[C@]5(O)[C@@H]4CC[C@]3(O)C2)[C@H](O)[C@H](O)[C@H]1O (stereo not given in full) | 2.55 µM
O=C1CC(c2ccc3c(c2)OCO3)Sc2nc3ccccc3n21 (stereo not given) | 8.89 µM
COC(=O)C[C@](O)(CCCC(C)(C)O)C(=O)O[C@@H]1C(OC)=C[C@]23CCCN2CCc2cc4c(cc2[C@H]13)OCO4 | < 0.0046 µM
C[C@@H]1CN([C@@H](C)CO)C(=O)c2c(c3ccccc3n2C)-c2ccccc2CO[C@@H]1CN(C)C(=O)c1cc(Cl)cc(Cl)c1 | > 20 µM (inactive)
CC1=CC(C)(C)N=C(Nc2nc(C)c3cc(C)cc(C)c3n2)N1 | 3.85 µM
O=C(Nc1ccc(C(F)(F)F)cc1)N1C[C@@H]2N[C@H](C1)C2c1ccc(-c2ccccc2)cc1 (stereo not given in full) | 7.26 µM
COc1ccc(S(=O)(=O)Nc2ccc3c(c2)C(=O)N([C@@H](C)CO)C[C@H](C)[C@@H](CN(C)Cc2ccc(C(F)(F)F)cc2)OCCCC[C@@H](C)O3)cc1 | 7.3 µM
N#C[C@@H]1[C@H](c2ccc(C#Cc3ccc(F)cc3)cc2)[C@@H](CO)N1C(=O)C1CCC1 | 4.71 µM
C[C@H]1CN([C@@H](C)CO)C(=O)c2cccc(NC(=O)Nc3ccc(F)cc3)c2O[C@H]1CN(C)S(=O)(=O)c1ccc(Cl)cc1 | 4.87 µM
Cn1cc(C2=C(c3cn(CCCSC(=N)N)c4ccccc34)C(=O)NC2=O)c2ccccc21 | 0.67 µM
O=c1cc(-c2ccc(O)cc2)oc2ccc3ccccc3c12 | 2.2 µM
O=C(C[C@@H]1CC[C@@H]2[C@H](COC[C@H](O)CN2Cc2cc(F)ccc2F)O1)NCc1ccc(Oc2ccccc2)cc1 | 6.77 µM
NC(=NCCCCCCN=C(N)/N=C(\N)Nc1ccc(Cl)cc1)/N=C(\N)Nc1ccc(Cl)cc1 | > 20 µM (inactive)
Clc1ccc(CSC(Cn2ccnc2)c2ccc(Cl)cc2Cl)cc1 (stereo not given) | > 20 µM (inactive)
CC(C)OC(=O)c1cn(Cc2c(F)cccc2F)c2sc(-c3ccc(NC(=O)C(C)C)cc3)c(CN(C)Cc3ccccc3)c2c1=O | > 20 µM (inactive)
